Data on 22 molecules can be found in patent publication US10131653B2, “Heterocyclic compound” (TAKEDA PHARMACEUTICAL COMPANY LIMITED, priority 2015, dated 2018).

Like-named read-outs stand apart in the source and are kept apart here.

In experiment [1] the target is T1, human OX1 receptor (Homo sapiens, UniProt O43613).
T1 construct: expressed in transfected cells; host or cells: CHO cells
T1 sequence (O43613 1-425): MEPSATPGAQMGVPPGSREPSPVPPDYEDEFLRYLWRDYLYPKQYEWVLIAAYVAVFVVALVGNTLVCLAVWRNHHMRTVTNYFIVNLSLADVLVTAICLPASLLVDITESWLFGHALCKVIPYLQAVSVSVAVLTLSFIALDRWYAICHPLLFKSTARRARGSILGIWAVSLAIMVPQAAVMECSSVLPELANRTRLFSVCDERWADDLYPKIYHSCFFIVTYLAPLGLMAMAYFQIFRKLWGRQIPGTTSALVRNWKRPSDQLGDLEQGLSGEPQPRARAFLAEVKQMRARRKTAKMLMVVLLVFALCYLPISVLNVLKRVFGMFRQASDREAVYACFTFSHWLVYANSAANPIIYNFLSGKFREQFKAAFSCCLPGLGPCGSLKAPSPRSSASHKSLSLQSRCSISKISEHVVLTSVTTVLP
As to the kind of experiment: Measurement of orexin receptor antagonistic activity (calcium fluorescence, FLIPRtetra). Format: cell-based. Conditions: for inhibition at 10 µM: CHO, read-out: Human Orexin1 receptor inhibition (at 10 μM). The method, then: (§1) Measurement of Orexin Receptor Antagonistic Activity
(§2) CHO cells forcibly expressing human OX1 receptor or human OX2 receptor were seeded in each well of 384 well black transparent bottom plate (BD Falcon) at 7,500 cells/well, and cultured for one day in a 5% CO2 incubator at 37° C. […] The plate was stood for 30 min in a 5% CO2 incubator at 37° C., and further stood at room temperature for 30 min. A test compound prepared by diluting with assay buffer B (HBSS, 20 mM HEPES, 0.1% BSA) was added at 10 μL/well, and then OX-A (OX1 receptor, final concentration; 1 nM) or OX-A (OX2 receptor, final concentration; 0.3 nM) was added at 10 μL/well, and the fluorescence value was measured by FLIPRtetra (Molecular Devices) every one sec for 2 min.

The target of experiment [2] is T2, human OX2 receptor (Homo sapiens, UniProt O43614).
T2 construct: expressed in transfected cells; host or cells: CHO cells
T2 sequence (O43614 1-444): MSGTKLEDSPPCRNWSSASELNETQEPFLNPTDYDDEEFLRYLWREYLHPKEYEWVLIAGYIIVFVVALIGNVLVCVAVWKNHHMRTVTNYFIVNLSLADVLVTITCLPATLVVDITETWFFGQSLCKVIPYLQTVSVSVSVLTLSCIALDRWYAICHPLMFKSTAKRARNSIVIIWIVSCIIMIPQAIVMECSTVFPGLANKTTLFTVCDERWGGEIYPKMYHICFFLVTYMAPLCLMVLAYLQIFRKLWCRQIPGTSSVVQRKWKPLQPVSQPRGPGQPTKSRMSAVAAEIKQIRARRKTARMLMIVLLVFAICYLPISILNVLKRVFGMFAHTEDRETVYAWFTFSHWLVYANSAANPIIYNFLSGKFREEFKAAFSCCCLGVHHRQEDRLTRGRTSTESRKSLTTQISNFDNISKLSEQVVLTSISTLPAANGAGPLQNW
The description is as above. Format: cell-based. Conditions: for inhibition at 10 µM: CHO, read-out: Human Orexin2 receptor inhibition (at 10 μM). On the procedure:
as §1, §2

Where [3] appears, read: 10 μM test compound, CHO cells expressing human OX1 receptor, OX-A 1 nM.
Where [4] appears, read: 10 μM test compound, CHO cells expressing human OX2 receptor, OX-A 0.3 nM.

Take `Cc1cc(N2CCN(C(=O)c3ccccc3-n3nccn3)C(C)C(C)O2)nc(C)n1` (stereo not shown) [Example 193, (2-(2,6-dimethylpyrimidin-4-yl)-6,7-dimethyl-1,2,5-oxadiazepan-5-yl)(2-(2H-1,2,3-triazol-2-yl)phenyl)methanone]: the “Human Orexin1 receptor inhibition (at 10 μM)” value in experiment [1] (setting [3]) turned out to be 89%. The “Human Orexin2 receptor inhibition (at 10 μM)” value in experiment [2] (setting [4]) is 103%.
As for `Cc1cc(N2CCN(C(=O)c3ccccc3-n3cccn3)CCO2)nc(C)n1` [Example 30, (2-(2,6-dimethyl-pyrimidin-4-yl)-1,2,5-oxadiazepan-5-yl) (2-(1H-pyrazol-1-yl)phenyl) methanone], the results for the inhibition at 10 µM in experiment [1] (setting [3]) and in experiment [2] (setting [4]) were 1% and 101%, respectively.
Take `Cc1nc(N2CCN(C(=O)c3cc(F)c(F)cc3-n3nccn3)C[C@H](C)O2)cc(C(F)(F)F)n1` [Example 107, (4,5-difluoro-2-(2H-1,2,3-triazol-2-yl)phenyl)((7S)-7-methyl-2-(2-methyl-6-(trifluoromethyl)pyrimidin-4-yl)-1,2,5-oxadiazepan-5-yl)methanone]: the inhibition at 10 µM in experiment [1] (setting [3]) was determined as 37%; in experiment [2] (setting [4]), 94%.
Take `COc1ncnc(N2CCN(C(=O)c3ccccc3-n3nccn3)[C@H](C)CO2)n1` [Example 159, ((6R)-2-(4-methoxy-1,3,5-triazin-2-yl)-6-methyl-1,2,5-oxadiazepan-5-yl)(2-(2H-1,2,3-triazol-2-yl)phenyl)methanone]: the figures for the inhibition at 10 µM in experiment [1] (setting [3]) and in experiment [2] (setting [4]) were 16% and 89%, respectively.
`Cc1ccc(-n2nccn2)c(C(=O)N2CCN(c3cccc(C#N)c3)OC[C@H]2C)c1` [Example 140, 3-((6R)-6-methyl-5-(5-methyl-2-(2H-1,2,3-triazol-2-yl)benzoyl)-1,2,5-oxadiazepan-2-yl)benzonitrile]: the values for the inhibition at 10 µM in experiment [1] and in experiment [2] were 21% and 88%, respectively.
Turning to `CC[C@@H]1CON(c2cc(C)nc(C)n2)CCN1C(=O)c1ccccc1-n1nccn1` [Example 168, ((6R)-2-(2,6-dimethylpyrimidin-4-yl)-6-ethyl-1,2,5-oxadiazepan-5-yl)(2-(2H-1,2,3-triazol-2-yl)phenyl)methanone], the inhibition at 10 µM in experiment [1] (setting [3]) turned out to be 95%; in experiment [2] (setting [4]), 99%.
For `Cc1ccc(-n2nccn2)c(C(=O)N2[C@H](C)CON(c3cc(C)nc(C)n3)C[C@@H]2C)c1` [Example 176, ((4S,6R)-2-(2,6-dimethylpyrimidin-4-yl)-4,6-dimethyl-1,2,5-oxadiazepan-5-yl)(5-methyl-2-(2H-1,2,3-triazol-2-yl)phenyl)methanone], the results for the inhibition at 10 µM in experiment [1] (setting [3]) and in experiment [2] (setting [4]) were 103% and 101%, respectively.
As to `Cc1cc(N2CCN(C(=O)c3ccccc3-c3nccs3)CCO2)nc(C)n1` [Example 29, (2-(2,6-dimethyl-pyrimidin-4-yl)-1,2,5-oxadiazepan-5-yl) (2-(1,3-thiazol-2-yl)phenyl) methanone], the inhibition at 10 µM in experiment [1] (setting [3]) is 88%; in experiment [2] (setting [4]), 100%.
For `Cc1cc(N2CCN(C(=O)c3cc(C4CCC4)ccc3-n3nccn3)CCO2)nc(C)n1` [Example 41, (5-cyclobutyl-2-(2H-1,2,3-triazol-2-yl)phenyl)(2-(2,6-dimethylpyrimidin-4-yl)-1,2,5-oxadiazepan-5-yl)methanone], in that order: 10% and 56%.
Regarding `Cc1cc(N2CCN(C(=O)c3cc(F)c(F)cc3-n3nccn3)CCO2)nc(C)n1` [Example 15, (4,5-difluoro-2-(2H-1,2,3-triazol-2-yl)phenyl) (2-(2,6-dimethylpyrimidin-4-yl)-1,2,5-oxadiazepan-5-yl)methanone], the values for the inhibition at 10 µM in experiment [1] (setting [3]) and in experiment [2] (setting [4]) were 5% and 102%, respectively.
With `Cc1ccc(-n2nccn2)c(C(=O)N2[C@H](C)CON(c3cc(C)nc(C(F)(F)F)n3)C[C@@H]2C)c1` [Example 177, ((4S,6R)-4,6-dimethyl-2-(6-methyl-2-(trifluoromethyl)pyrimidin-4-yl)-1,2,5-oxadiazepan-5-yl) (5-methyl-2-(2H-1,2,3-triazol-2-yl)phenyl)methanone], the inhibition at 10 µM in experiment [1] (setting [3]) is 102%; in experiment [2] (setting [4]) it was 106%.
Take `Cc1cc(C)nc(N2CCN(C(=O)c3ccccc3C(F)(F)F)CCO2)n1` [Example 62]: the values for the inhibition at 10 µM in experiment [1] (setting [3]) and in experiment [2] (setting [4]) were 2% and 72%, respectively.
The like results for `Cc1nccc(N2C[C@H](C)N(C(=O)c3ccccc3-c3nccs3)[C@H](C)CO2)n1` [Example 184, ((4S,6R)-4,6-dimethyl-2-(2-methylpyrimidin-4-yl)-1,2,5-oxadiazepan-5-yl)(2-(1,3-thiazol-2-yl)phenyl)methanone] were, in that order, 100% and 102%.
As for `Cc1nccc(N2CCN(C(=O)c3cc(Cl)ccc3-c3ncccn3)[C@H](C)CO2)n1` [Example 229, (5-chloro-2-(pyrimidin-2-yl)phenyl)((6R)-6-methyl-2-(2-methylpyrimidin-4-yl)-1,2,5-oxadiazepan-5-yl)methanone], the inhibition at 10 µM in experiment [1] (setting [3]) came out at 40%; in experiment [2] (setting [4]), 101%.
For `Cc1cc(N2CCN(C(=O)c3ccccc3-c3ncccn3)C[C@H](C)O2)nc(C)n1` [Example 109, ((7S)-2-(2,6-dimethylpyrimidin-4-yl)-7-methyl-1,2,5-oxadiazepan-5-yl)(2-(pyrimidin-2-yl)phenyl)methanone], the inhibition at 10 µM in experiment [1] (setting [3]) turned out to be 85%; in experiment [2] (setting [4]), 101%.
For `Cc1cc(N2CCN(C(=O)c3cc(F)c(F)cc3-n3nccn3)C[C@H](C)O2)nc(C(F)(F)F)n1` [Example 108, (4,5-difluoro-2-(2H-1,2,3-triazol-2-yl)phenyl)((7S)-7-methyl-2-(6-methyl-2-(trifluoromethyl)pyrimidin-4-yl)-1,2,5-oxadiazepan-5-yl)methanone], in that order: 100% and 101%.
In the case of `Cc1cc(C)nc(N2CCN(C(=O)c3cc(C)ccc3-n3nccn3)CCO2)c1` [Example 34, (2-(4,6-dimethylpyridin-2-yl)-1,2,5-oxadiazepan-5-yl)(5-methyl-2-(2H-1,2,3-triazol-2-yl)phenyl)methanone], the inhibition at 10 µM in experiment [1] (setting [3]) stood at 97%; in experiment [2] (setting [4]), 99%.
For the molecule `Cc1cc(C)nc(N2CCN(C(=O)c3cccc4cccnc34)CCO2)n1` [Example 66, (2-(4,6-dimethylpyrimidin-2-yl)-1,2,5-oxadiazepan-5-yl) (quinolin-8-yl)methanone], the inhibition at 10 µM in experiment [1] (setting [3]) turned out to be 13%; in experiment [2] (setting [4]), 90%.
Regarding `Cc1ccc(-n2nccn2)c(C(=O)N2CCN(c3cc(C)nc(C)n3)OC[C@H]2C)c1` [Example 6, ((6R)-2-(2,6-dimethylpyrimidin-4-yl)-6-methyl-1,2,5-oxadiazepan-5-yl)(5-methyl-2-(2H-1,2,3-triazol-2-yl)phenyl)methanone], the inhibition at 10 µM in experiment [1] (setting [3]) came out at 88%; in experiment [2] (setting [4]), 96%.
Turning to `COc1cccc(N2CCN(C(=O)c3cc(C)ccc3-n3nccn3)[C@H](C)CO2)c1` [Example 120, ((6R)-2-(3-methoxyphenyl)-6-methyl-1,2,5-oxadiazepan-5-yl) (5-methyl-2-(2H-1,2,3-triazol-2-yl)phenyl)methanone], the figures for the inhibition at 10 µM in experiment [1] (setting [3]) and in experiment [2] (setting [4]) were 83% and 100%, respectively.
As for `Cc1cc(C)nc(N2CCN(C(=O)c3ccccc3C#N)CCO2)n1` [Example 45, 2-((2-(4,6-dimethylpyrimidin-2-yl)-1,2,5-oxadiazepan-5-yl)carbonyl)benzonitrile], the inhibition at 10 µM in experiment [1] (setting [3]) amounted to 16%; in experiment [2] (setting [4]), 19%.
On to `Cc1cc(C)nc(N2CCN(C(=O)c3ccc(Cl)cc3)CCO2)n1` [Example 40, (4-chlorophenyl)(2-(4,6-dimethylpyrimidin-2-yl)-1,2,5-oxadiazepan-5-yl)methanone], for which the inhibition at 10 µM in experiment [2] (setting [4]) turned out to be 4%.
